The values below come from PMC11173485, “Connecting GSK-3β Inhibitory Activity with IKK-β or ROCK-1 Inhibition to Target Tau Aggregation and Neuroinflammation in Alzheimer’s Disease—Discovery, In Vitro and In Cellulo Activity of Thiazole-Based Inhibitors” (Molecules, 2024).

The target of one data set is GSK-3β (Homo sapiens, UniProt P49841). Put plainly: ADP-Glo kinase assay, GSK-3β inhibition. Also noted: purchased Promega. It counts as biochemical. The following applies: mean ± SEM; ATP 25 µM. In general terms: In ADP-Glo the light output rises with the ADP produced.
GSK-3β, sequence (P49841 whole entry): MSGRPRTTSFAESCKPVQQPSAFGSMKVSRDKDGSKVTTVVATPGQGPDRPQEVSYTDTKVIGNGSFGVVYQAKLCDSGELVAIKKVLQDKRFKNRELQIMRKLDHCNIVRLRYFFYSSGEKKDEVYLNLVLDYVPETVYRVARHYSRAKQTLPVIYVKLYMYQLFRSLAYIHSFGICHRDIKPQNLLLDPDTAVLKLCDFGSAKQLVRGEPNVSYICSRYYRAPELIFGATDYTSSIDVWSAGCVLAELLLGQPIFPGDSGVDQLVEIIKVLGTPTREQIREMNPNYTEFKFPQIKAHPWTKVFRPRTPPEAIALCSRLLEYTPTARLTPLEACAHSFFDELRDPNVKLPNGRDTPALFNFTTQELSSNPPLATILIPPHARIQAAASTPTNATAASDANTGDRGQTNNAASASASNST
For data set [1], the system named is BV-2 (mouse microglial cells). Put plainly: Cytotoxicity, PrestoBlue cell viability assay in BV-2 cells. It counts as cell-based. The method, then:
(§1) We assessed their cytotoxic effects at five concentrations (0.1, 1, 10, 50, and 100 µM) in HT-22 (mouse hippocampal neuronal cells) and BV-2 (mouse microglial cells) cell lines using a fluorometric assay with PrestoBlue™ cell viability reagent (Table 4, Table S2 in the SI).
(§2) Mouse microglial cells (BV-2) were a generous gift from Professor Bozena Kaminska-Kaczmarek of the Laboratory of Molecular Neurobiology, Neurobiology Center, Nencki Institute of Experimental Biology, Polish Academy of Sciences, Warsaw, Poland. Cells were cultured in Dulbecco’s modified Eagle’s Medium-high glucose (DMEM, Glutamx Thermo Fisher, Waltham, MA, USA) supplemented with 10% inactivated fetal bovine serum (Thermo Fisher), 100 IU/mL penicillin (Merck), and 100 µg/mL streptomycin (Merck). Cells were cultured in flasks (area 175 cm^2, Nunc) and incubated at 37 °C, 5% CO2. To evaluate the level of NO, IL-6, and TNF-α and the effectiveness of the compounds tested, BV-2 microglia cells were cultured in 96-well culture plates (5 × 10^4 cells per well, Falcon). For the measurement of cell viability and cell membrane damage, cells were placed in 96-well culture plates (2 × 10^4 cells per well, Falcon). Before the tests, cells were grown for 24 h in the incubator (37 °C, 5% CO2). Mouse Hippocampal Neuronal Cell Line (HT-22) was a generous gift from Dr Bartosz Pomierny of the Department of Biochemical Toxicology, Jagiellonian University Medical College, Krakow, Poland. Cells were cultured in Dulbecco’s modified Eagle’s Medium-high glucose (DMEM, Glutamx Thermo Fisher) supplemented with 10% inactivated fetal bovine serum (Thermo Fisher), 100 IU/mL penicillin (Merck), and 100 µg/mL streptomycin (Merck). Cells were cultured in flasks (area 175 cm^2, Nunc) and incubated at 37 °C, 5% CO2. For the measurement of cell viability and neuroprotective effects against okadaic acid, cells were placed in 96-well culture plates (2 × 10^4 cells per well, Falcon). Before the tests, cells were grown for 24 h in the incubator (37 °C, 5% CO2).
(§3) Cell viability was evaluated using the PrestoBlue reagent (Thermo Fisher), according to the manufacturer’s procedures. Following 24 h of incubation with the tested molecule, PrestoBlue reagent was added to a microplate well in an amount equal to one-tenth of the remaining medium volume. The resulting mixture was incubated for 15 min at 37 °C, and the fluorescence intensity (EX 530; EM 580 nm) was measured using the plate reader POLARstar Omega, (BMG Labtech, Ortenberg, Germany). The results (viability values) are provided as a percentage of live cells with respect to DMSO (control sample).
(§4) Cytotoxic effects of selected inhibitors in HT-22 mouse hippocampal neuronal cells and BV-2 mouse microglial cells
(§5) Table S2. Cytotoxic effects of selected inhibitors in HT-22 mouse hippocampal neuronal cells and BV-2 mouse microglial cells. neurotoxicity in HT-22 cellsa immunotoxicity in BV-2 cellsa […]
(§6) a % of cell viability at the given concentration of tested compound; mean value ± standard deviation (SD) of triplicates; b half maximal inhibitory concentration of the tested compound; mean value ± standard error of the mean (SEM) of triplicates; c data obtained in log C of 39 of -8.5; -7.5; -6.5; -5.5; -5, respectively; d data obtained in log C of 49 of -7.5; -6.5; -5.5; -4.5; -4. respectively; nt, not tested.

Experiment in data set [2]: as above
Particulars: mouse, BV-2 microglial cells, 24 h. It counts as cell-based, mouse. On the procedure:
as §1, §2, §3, §4, §5, §6

Each structure is given as a SMILES string.

For the compound `O=C1NC2(CCOC2)Nc2cc(-c3ccnc(NC(=O)C4CC4)c3)sc21` (stereo not drawn) [Compound 62, N-(4-(4′-Oxo-3′,4,4′,5-tetrahydro-1′H,2H-spiro[furan-3,2′-thieno [3,2-d]pyrimidin]-6′-yl)pyridin-2-yl)cyclopropanecarboxamide], on GSK-3β, the IC50 was 0.008 µM. In data set [1] (0.1, 1, 10, 50, and 100 µM), the “effect on cell viability in BV-2 cells (in words)” value is given as “decreased cells’ viability”. For the same compound, in data set [1] (up to 10 µM), the “effect on viability of BV-2 cells at concentrations up to 10 µM (in words)” value is “did not decrease the viability of the cells”. Moreover, the viability at 24 h, 1 µM in data set [2] (1 µM (log C -6), read-out: immunotoxicity in BV-2 cells, % of cell viability) is 106%. In data set [2] (10 µM (log C -5), read-out: immunotoxicity in BV-2 cells, % of cell viability), the viability at 24 h, 10 µM was 105%. Also, the viability at 24 h, 50 µM in data set [2] (50 µM (log C -4.3), read-out: immunotoxicity in BV-2 cells, % of cell viability) turned out to be 5%. The viability at 24 h, 100 µM in data set [2] (100 µM (log C -4), read-out: immunotoxicity in BV-2 cells, % of cell viability) stood at 2%. Further, the half-inhibitory concentration (IC50) at 24 h in data set [2] (PrestoBlue, mean ± SEM, read-out: Cytotoxicity in BV-2 Cells (IC50 x¯ ± SEM µM)) was determined as 54.8 ± 1.9 µM. For the same compound, the viability at 24 h, 0.1 µM in data set [2] (read-out: immunotoxicity in BV-2 cells, % of cell viability) was 105%.

The IC50 is the concentration at which inhibition is half-maximal. As usually defined, the viability is a read-out of living cells in per cent, often relative to untreated cells.
